# Source: patent publication US9598463B2, “Mucin hypersecretion inhibitors and methods of use” (BIOMARCK PHARMACEUTICALS, LTD., priority 2005, dated 2017)
# Read-outs that look alike come from different tables or passages of the source.
# Columns and labels:
# [1] = tested on: methacholine-induced mucin hypersecretion; test: Duration of action of test peptides in a murine model of asthma; assay type: in vivo; details: Balb/C mice
# Excerpt: Experiments were designed to test whether or not the MANS peptide and other test peptides related thereto inhibit hypersecretion of mucin in murine airway in vivo. The ovalbumin-sensitized mouse model of allergic inflammation and asthma used in these studies was as described by Singer et al. (2004), supra. As a negative control, a control peptide containing an N-terminal myristoyl group and the same amino acids as MANS peptide but arranged in random order (i.e., the random N-terminal sequence, RNS, myristoyl-peptide 232) was tested alongside the proposed active peptides. BP2 mice, aged 6-8 wks, were immunized subcutaneously twice at weekly intervals with 1 μg of ovalbumin. After 14 days of sensitization, the animals were exposed to aerosolized ovalbumin, which causes a pronounced goblet cell hyperplasia after 72 hours. At the 72 hr time point, the secretagogue, methacholine ([…]) was delivered using a Buxco system nebulizer providing a fine aerosol for 90 seconds. Fifteen min prior to the secretagogue challenge, 50 μL of the test peptide, at 3 different concentrations (10 μM, 100 μM, or 140 μM), was administered by intratracheal route. The RNS peptide was tested at the highest dose level only (50 μL of 140 μM solution). […] Each experiment was carried out in 6 mice per point, and each set of experiments was repeated 3 times. To test strain-to-strain variations, the above experiment was repeated in Balb/C mice under similar protocol. Both stimulated and unstimulated mucin secretion, in mice treated with […] sodium acetate (data not shown), were identical to saline control. Following the methacholine challenge, the animals were sacrificed and bronchoalveolar lavage (BAL) performed on 6 animals per group for analysis of secreted mucin.
# Mice were sacrificed by cervical dislocation, followed by rapid exposure of the trachea and insertion of a cannula through a small incision. Bronchoalveolar lavage (BAL) fluid was collected with 0.5 ml followed by 3×1 ml PBS containing PMSF (5 mM), EDTA (5 mM), and DTT (5 mM). BAL fluid was separated into cell-free and cell fractions via brief centrifugation prior to any analyses being performed. The cell-free supernatants were analyzed for the presence of mucin via an ELISA method using anti-mucin antibodies shown to react with mouse mucin. Specifically, a mouse anti-MUC5AC antibody that recognizes the carbohydrate portion of secreted mucin was used in these assays. Data generated from each BAL sample were normalized to total protein as determined by Bradford assay. Mucin content was expressed as the value obtained with the anti-mucin antibody minus that obtained with the non-immune control antibody. All ELISA data were statistically examined using a one-way ANOVA.
# Experiments were designed to determine the duration of action of test peptides in a murine model of asthma. As described in Method 1A, Balb/C mice were immunized with ovalbumin. After 14 days, the animals were challenged with aerosolized ovalbumin. After 72 hours the secretagogue, methacholine was delivered by aerosolization. The test peptides ([…] of 100 µM solution) were administered by intratracheal route 30 min, 60 min, or 120 min prior to methacholine challenge. The animals were sacrificed and BAL performed for analysis of secreted mucin The results of this experiment are given in Table VI.
# [2] = Qualitative solubility of test peptides in 0.5 N saline; assay type: physicochemical; details: pH 6.5, 20° C. (table title)
# How it was run: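 Weighed peptide (1 to 5 mg) titrated with 25 μL aliquots of 0.5 N saline, pH 6.5, at 25° C until dissolution judged visually. Solubility calculated from volume needed; complete dissolution in first aliquot reported as greater than, non-dissolution as less than, the calculated value.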
# [3] = Stability of test peptides in human plasma (LC/MS/MS, first order half-life); assay type: in vitro ADME; details: human plasma, 37° C.
# Method: Various test peptides in human plasma, human BALF, and CF patient mucus were analyzed to determine the susceptability of the test peptide to proteolysis in the biological fluids. […] The samples were analyzed either on the same day as received or stored at −20° C. and analyzed within the following two days.
# Fresh human blood samples were collected in citrate buffered vacuutrainers (in absence of EDTA or heparin). Red blood cells (RBC) were removed by centrifugation of the blood at 4000×g for 10 min at 4° C. Plasma aliquots (0.9 mL) were then spiked with 0.1 mL of 0.5 mg/mL solution of the test peptide in 75 mM sodium acetate buffer at pH 7.0 and incubated in a water bath maintained at 37° C. Duplicate aliquots of 10 μL, were withdrawn at 5, 15, 30, 60, and 180 minutes intervals and immediately “quenched” with 990 μL of a solution consisting of 50% acetonitrile+50% water containing 0.2% formic acid. The samples were then subjected to liquid chromatography-mass spectrometry (LCMS) analysis.
# All samples were analyzed using LC/MS/MS (MDS/SCIEX, API 4000 Model). Chromatography was performed using a Phenomenex Luna C18 column, while mass spectrometry was performed using positive ion electrospray ionization.
# Calibration standards were analyzed by LCMS at concentrations of 0.100 μg/mL, 1.00 μg/mL, 10.0 μg/mL, and 100 μg/mL for each peptide, with the exception of the calibration standards for peptides myr-PEPTIDE 106, PEPTIDE 106, PEPTIDE 106-NH2, PEPTIDE 106, and cyclic peptide, cyc-PEPTIDE 106, in human mucus, which were analyzed at concentrations of 0.100 μg/mL, 1.00 μg/mL, 10.0 μg/mL, and 75 μg/mL. Standards were prepared in 1% human BALF, plasma, or mucus in 50/50 water/acetonitrile mixture containing 0.2% formic acid. The instrument response values for each set of standards were fit using a 1/(concentration)^2 linear least-squares line. Sample concentrations were calculated using the slope and intercept of this line. Concentrations outside of the calibration range were determined by extrapolating the calibration curve. […]
# For the analysis of peptide concentration in plasma, duplicate calibration standards were analyzed at a concentration of 25 μg/mL and 50 μg/mL for each peptide. The instrument response values for each set of standards were fit through an intercept of 0 using an unweighted, linear least-squares line. Sample concentrations were calculated using the slope and intercept of this line. Concentrations outside of the calibration range were determined by extrapolating the calibration curve.
# Watson fits the log transformed data with a least-squares line to determine parameters such as Cmax (maximum concentration), intercept, rate constant, slope, and T1/2 (half-life). The resulting kinetic parameters were based on the linear fit, not the actual concentration values.
# Time-zero calibration standards in solution were not included as part of the kinetic profiles.
# [4] = peptide intratracheal 30 min prior to methacholine challenge
# [5] = peptide intratracheal 60 min prior to methacholine challenge
# [6] = peptide intratracheal 120 min prior to methacholine challenge
# [7] = 2nd experiment, read-out: Plasma t1/2 (2nd exp.) (converted)
Substance,"Duration of action, mucin secretion (% of Control) [1, 4]","Duration of action, mucin secretion (% of Control) [1, 5]","Duration of action, mucin secretion (% of Control) [1, 6]",solubility [2],"half-life [3, 7]","half-life ([3]; 1st experiment, read-out: Plasma t1/2 (1st exp.) (converted))"
Ac-GAQFSKTAAK-OH [Ac-peptide 106],21 % of Control,72 % of Control,70 % of Control,> 100 mg/mL,1.8 min,–
"H-GAQFSKTAAK-OH [peptide 106, GAQFSKTAAK]",23 % of Control,48 % of Control,57 % of Control,> 70 mg/mL,9 min,16.8 min
